# Test results reported in ChEMBL document CHEMBL2040814, “Synthesis and biological activity of substituted 2,4-diaminopyrimidines that inhibit Bacillus anthracis” (2012).
# System: Bacillus anthracis
# Assay: Antibacterial activity against Bacillus anthracis Sterne after 16 hrs by alamar blue broth microdilution technique
# Assay type: functional
row,Structure (SMILES),MIC
1,CCCC1c2ccccc2C=NN1C(=O)/C=C/c1cc(Cc2cnc(N)nc2N)cc(OC)c1OC (racemic),1 µg/mL
2,COc1cc(Cc2cnc(N)nc2N)cc(/C=C/C(=O)N2N=Cc3ccccc3C2C(C)C)c1OC (racemic),1 µg/mL
3,COc1cc(Cc2cnc(N)nc2N)cc(/C=C/C(=O)N2N=Cc3ccccc3C2CCC(F)(F)F)c1OC (racemic),1 µg/mL
4,COc1cc(Cc2cnc(N)nc2N)cc(/C=C/C(=O)N2N=Cc3ccccc3C2CC(C)C)c1OC (racemic),1 µg/mL
5,CCC(CC)C1c2ccccc2C=NN1C(=O)/C=C/c1cc(Cc2cnc(N)nc2N)cc(OC)c1OC (racemic),4 µg/mL
6,COc1cc(Cc2cnc(N)nc2N)cc(/C=C/C(=O)N2N=Cc3ccccc3C2c2ccccc2C)c1OC (racemic),8 µg/mL
7,COc1cc(Cc2cnc(N)nc2N)cc(/C=C/C(=O)N2N=Cc3ccccc3C2c2cc(C)cc(C)c2)c1OC (racemic),4 µg/mL
8,COc1cc(Cc2cnc(N)nc2N)cc(/C=C/C(=O)N2N=Cc3ccccc3C2c2cccc(F)c2)c1OC (racemic),2 µg/mL
9,COc1cc(Cc2cnc(N)nc2N)cc(/C=C/C(=O)N2N=Cc3ccccc3C2c2ccc(F)cc2)c1OC (racemic),1 µg/mL
10,COc1cc(Cc2cnc(N)nc2N)cc(/C=C/C(=O)N2N=Cc3ccccc3C2Cc2ccccc2)c1OC (racemic),8 µg/mL
11,COc1cc(Cc2cnc(N)nc2N)cc(/C=C/C(=O)N2N=Cc3ccccc3C2Cc2ccc(C)cc2)c1OC (racemic),4 µg/mL
12,COc1ccc(CC2c3ccccc3C=NN2C(=O)/C=C/c2cc(Cc3cnc(N)nc3N)cc(OC)c2OC)cc1 (racemic),8 µg/mL
13,COc1cc(Cc2cnc(N)nc2N)cc(/C=C/C(=O)N2N=Cc3ccccc3C2Cc2ccc(OC(F)(F)F)cc2)c1OC (racemic),4 µg/mL
14,COc1cc(Cc2cnc(N)nc2N)cc(/C=C/C(=O)N2N=Cc3ccccc3C2c2ccc(C)cc2)c1OC (racemic),1 µg/mL
15,COc1cc(Cc2cnc(N)nc2N)cc(/C=C/C(=O)N2N=Cc3ccccc3C2C2CCCCC2)c1OC (racemic),1 µg/mL
16,COc1cc(Cc2cnc(N)nc2N)cc(/C=C/C(=O)N2N=Cc3ccccc3C2c2ccccc2)c1OC (racemic),0.375 µg/mL
